Test results as given in patent US20110059226A1, “METHOD FOR LOADING A MOLECULE INTO A POROUS SUBSTRATE” (priority 2009, published 2011).

What was measured:
Format in all cases: physicochemical
[1] = Solubility limit of Ibuprofen in CO2 (I) and CO2 (I) with 5 mol % cosolvent, by visual inspection; settings: room temperature, 55±2 bar, 9 hours
Experimental: The solubility of Ibuprofen in CO2 (I) and CO2 (I) with 5 mol % of cosolvent was determined by visual inspection of sample mixtures of the solvent(s) and Ibuprofen at room temperature and 55±2 bar, and the solubility limit was considered to be reached when particles of Ibuprofen were visible.

[2] = Loading of Ibuprofen into mesoporous silica (MCM-41) from liquid carbon dioxide, adsorbed amount measured by TGA; settings: for Maximum loaded amount of Ibuprofen in mesoporous silica: pure CO2 (I), 20° C., 55±2 bar
Excerpt: The mesoporous particles were placed in a bag (fabric of polypropene, PP 3333, permeability 105 DIN, Derma AB, Sweden), which was permeable for the solvent and dissolved Ibuprofen molecules but kept the mesoporous particles in one place in the reactor (see below). The amount of mesoporous particles was 0.1 g in all experiments, while the amount of Ibuprofen was varied for different loading experiments. The particles in the bag and Ibuprofen crystals (thoroughly ground in a mortar before use) were placed in a glass beaker (400 ml), which was placed in an in-house built stainless steel reactor (1.7 L) with two sapphire glass windows. The reactor was first pressurized with carbon dioxide and thereafter 200 ml CO2 (I) or CO2 (I)+5 mol-% cosolvent was introduced into the glass beaker at 20° C. and 55±2 bar. […] After the loading period (15 minutes to 18 hours), the reactor was depressurized and the bag containing the mesoporous particles with Ibuprofen was retrieved. The samples were characterized with TGA using a TGA 7 instrument (Perkin Elmer Inc., USA). The temperature program used consisted of an initial part with a heating rate of 20° C./min from 20° C. to 95° C., followed by an isothermal pause for 60 minutes at 95° C., and finally heating from 95° C. up to 800° C. at a heating rate of 2° C./min. All TGA measurements were performed under 20 ml/min flow of N2 gas. […] The loading time and concentration of Ibuprofen in the CO2 (I) was varied in the experiments and each experiment is represented by one point in the graph in FIG. 1.

[3] = Release of Ibuprofen from mesoporous silica into water; settings: within one minute of the mesoporous silica being added to water
Excerpt: Fifty percent of the Ibuprofen is released into water within one minute of the mesoporous silica being added to water. This is desirable as a quicker release for an analgesic drug will result in faster relief for the individual taking the analgesic drug.

CC(C)Cc1ccc(C(C)C(=O)O)cc1 (stereo not shown) [Ibuprofen]
Solubility limit ([1]; Solvent CO2 (I) + acetone (5 mol %)): 1.5-2.0 wt-%
Solubility limit ([1]; Solvent CO2 (I) + cyclohexane (5 mol %)): 1.0-1.5 wt-%
Solubility limit ([1]; Solvent CO2 (I) + methanol (5 mol %)): >2.0 wt-%
Solubility limit ([1]; Solvent CO2 (I)): 0.20-0.25 wt-%
Maximum adsorbed amount of Ibuprofen in the mesoporous particles ([2]; 0.34 wt-% Ibuprofen in CO2 (I) + acetone (5 mol-%)): approximately 50 mg Ibuprofen/g SiO2
Maximum adsorbed amount of Ibuprofen in the mesoporous particles ([2]; 0.34 wt-% Ibuprofen in CO2 (I) + cyclohexane (5 mol-%)): approximately 200 mg Ibuprofen/g SiO2
Maximum adsorbed amount of Ibuprofen in the mesoporous particles ([2]; 0.34 wt-% Ibuprofen in CO2 (I) + methanol (5 mol-%)): approximately 50 mg Ibuprofen/g SiO2
Maximum loaded amount of Ibuprofen in mesoporous silica ([2]; Ibuprofen concentration below the solubility limit (0.04 wt-%)): much lower loading
Maximum loaded amount of Ibuprofen in mesoporous silica ([2]; solution saturated with Ibuprofen (0.34 or 0.90 wt-% nominal), 7 to 12 hours): ~300 mg Ibuprofen/g SiO2
Ibuprofen released into water from mesoporous silica [3]: Fifty
